Results reported in publication PMC8187479, “Sugar phosphate activation of the stress sensor eIF2B” (Nature Communications, 2021).
Substitutions are numbered along the chain they refer to. Values joined by “and” are separate entries in the source; they are usually repeats but may differ in a detail not shown here. Equal entries are not always repeated.

Tests used:
Type in all cases: binding
eIF2Bα [1] = molecular target: T1, eIF2Bα (Homo sapiens, UniProt Q14232); test: Differential scanning fluorimetry (Protein Thermal Shift), eIF2Bα Tm; settings: individual replicates Rep 1-4, control without metabolite about 64.1
T1 construct: made in house; host or cells: E. coli BL21(DE3)
T1 sequence (Q14232 1-305): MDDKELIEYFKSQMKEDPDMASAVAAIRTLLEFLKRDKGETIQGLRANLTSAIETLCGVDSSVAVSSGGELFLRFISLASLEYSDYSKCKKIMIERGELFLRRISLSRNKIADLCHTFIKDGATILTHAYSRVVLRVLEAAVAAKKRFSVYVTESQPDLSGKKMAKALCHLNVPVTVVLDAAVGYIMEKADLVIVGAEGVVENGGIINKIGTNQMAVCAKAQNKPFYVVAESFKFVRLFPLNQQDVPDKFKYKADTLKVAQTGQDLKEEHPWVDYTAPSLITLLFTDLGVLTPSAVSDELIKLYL
Procedure: The effect of metabolite binding on eIF2Bα Tm was assessed using the Protein Thermal Shift assay (Thermo Fisher), following manufacturer’s instructions. Briefly, reaction conditions for each 20 μL reaction were: 1.1 μg (1.5 μM) of eIF2Bα, 5 μl Thermal Shift buffer, 1X Thermal Shift dye, and metabolites in dose response. Reactions were run in 384-well format on a QuantStudio 6 Flex instrument (Thermo Fisher). The resulting melt curves were analyzed using Protein Thermal Shift Software, and eIF2Bα Tms for each condition were calculated by fitting to the Boltzmann function.

eIF2Bα [2] = molecular target: T1, eIF2Bα; test: Isothermal titration calorimetry, wild-type eIF2Bα
Procedure: (§1) Interactions between recombinant protein and sugar phosphates were conducted with a MicroCal PEAQ-ITC (Malvern Panalytical Inc.). Experiments were performed in 25 mM HEPES, 150 mM NaCl, pH 7.5 at 20 °C. The sugar phosphate concentration in the syringe was 1 mM or 1.5 mM, and ~3.5 μL aliquots were injected into cells containing 300 μL eIF2Bα or eIF2B(βδγε) at a concentration of 20–30 μM. The final titration curves were fitted using MicroCal ITC data analysis software, assuming a single binding site per monomer.

eIF2Bα^N208Y = molecular target: T2, eIF2Bα^N208Y (Homo sapiens, UniProt Q14232, N208Y); test: Isothermal titration calorimetry, eIF2Bα N208Y; settings: ITC
T2 construct: made in house; host or cells: E. coli BL21(DE3)
T2 sequence (Q14232 1-305 N208Y): T1 sequence (Q14232 1-305) with N208Y
Procedure: as §1

Compound: O=C[C@@H](O)[C@@H](O)[C@H](O)[C@H](O)COP(=O)(O)O [M6P, mannose-6-phosphate]
- Tm of eIF2Bα (eIF2Bα [1]; 0.33 mM metabolite): 64.7587 °C and 64.5257 °C and 64.0751 °C and 63.7209 °C
- Tm of eIF2Bα (eIF2Bα [1]; 1 mM metabolite): 66.0911 °C and 65.9704 °C and 65.2776 °C and 64.2935 °C
- Tm of eIF2Bα (eIF2Bα [1]; 5 mM metabolite): 66.7846 °C and 66.6099 °C and 66.516 °C and 65.7833 °C
- Kd (eIF2Bα [2]; ITC, wild-type eIF2Bα): 282 ± 35 µM
- ITC binding isotherm, heat per mole of injectant (eIF2Bα [2]; molar ratio 0.225339): -1.246 kcal/mol
- ITC binding isotherm, heat per mole of injectant (eIF2Bα [2]; molar ratio 0.415168): -1.08 kcal/mol
- ITC binding isotherm, heat per mole of injectant (eIF2Bα [2]; molar ratio 0.606855): -1.012 kcal/mol
- ITC binding isotherm, heat per mole of injectant (eIF2Bα [2]; molar ratio 0.8004): -0.9251 kcal/mol
- ITC binding isotherm, heat per mole of injectant (eIF2Bα [2]; molar ratio 0.995804): -0.7798 kcal/mol
- ITC binding isotherm, heat per mole of injectant (eIF2Bα [2]; molar ratio 1.19307): -0.7719 kcal/mol
- ITC binding isotherm, heat per mole of injectant (eIF2Bα [2]; molar ratio 1.39219): -0.7333 kcal/mol
- ITC binding isotherm, heat per mole of injectant (eIF2Bα [2]; molar ratio 1.59317): -0.643 kcal/mol
- ITC binding isotherm, heat per mole of injectant (eIF2Bα [2]; molar ratio 1.796): -0.5884 kcal/mol
- ITC binding isotherm, heat per mole of injectant (eIF2Bα [2]; molar ratio 2.0007): -0.5938 kcal/mol
- ITC binding isotherm, heat per mole of injectant (eIF2Bα [2]; molar ratio 2.20725): -0.6099 kcal/mol
- ITC binding isotherm, heat per mole of injectant (eIF2Bα [2]; molar ratio 2.41567): -0.5269 kcal/mol
- ITC binding isotherm, heat per mole of injectant (eIF2Bα [2]; molar ratio 2.62594): -0.5106 kcal/mol
- ITC binding isotherm, heat per mole of injectant (eIF2Bα [2]; molar ratio 2.83807): -0.4795 kcal/mol
- ITC binding isotherm, heat per mole of injectant (eIF2Bα [2]; molar ratio 3.05206): -0.426 kcal/mol
- ITC binding isotherm, heat per mole of injectant (eIF2Bα [2]; molar ratio 3.2679): -0.4467 kcal/mol
- ITC binding isotherm, heat per mole of injectant (eIF2Bα [2]; molar ratio 3.48561): -0.4459 kcal/mol
- ITC binding isotherm, heat per mole of injectant (eIF2Bα [2]; molar ratio 3.70517): -0.1953 kcal/mol
- interaction with eIF2Bα N208Y (eIF2Bα^N208Y): does not interact
